Experimental data from PubChem BioAssay AID179 (DTP/NCI, 2004).
Where “and” joins values, the source holds several entries; their conditions need not be identical. Equal entries are not always repeated. Calls of active or inactive are those of the source.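 The calls were made as follows: active = compounds giving half or more protection of infected cells from virus-caused growth loss, again on retest; inactive = the rest.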 Where a SMILES comes first, the peptide text is derived from it. [ ]: non-standard residue; d: D form. The star is where a group is joined. Phe(4-NO2) = N[CH](Cc1ccc([N+](=O)[O-])cc1)C(=O)O; Boc = CC(C)(C)OC(=O)*; OBn = c1ccc(CO*)cc1

System: CEM cells HIV-1 protection, formazan growth assay
Assay: NCI AIDS Antiviral Assay
Conditions: for IC50: measured here: growth of uninfected CEM cells
Method: The ability of compounds to protect human CEM cells from HIV-1 infection is measured as a screen for new compounds capable of inhibiting the HIV virus. Five concentrations of drug were tested on uninfected and infected cells and cell growth was measured using a soluble formazan assay. […] Compounds that provided at least 50% protection were retested. Compounds that provided at least 50% protection on retest were listed as moderately active. Compounds that reproducibly provided 100% protection were listed as confirmed active. […] Note that the inability to provide protection could be due to toxicity.

Row | Compound | EC50 | IC50 | outcome
1 | CCCCCCN(CCCCCC)C(=O)C1=C(C)NC(C)=C(C(=O)N(CCCCCC)CCCCCC)C1 | > 200 µM | 95.5 µM | –
2 | O=C(NCCCNC(=O)c1ccccc1O)c1ccccc1O | > 200 µM | 69.2 µM | –
3 | CC1OC(c2ccc3c(OCc4ccccc4)cccc3c2O)CC(OCc2ccccc2)[C@H]1OCc1ccccc1 (some centres not stated) | > 200 µM | > 200 µM | –
4 | CCN(CC)c1ccc2c(c1)Oc1cc(N(CC)CC)ccc1C2c1ccccc1C(=O)O | > 200 µM | > 200 µM | –
5 | O=C(O)c1cc2ccccc2oc1=O | > 1320 µM | > 1320 µM | –
6 | Clc1ccc(C2SCc3nc4ccccc4n32)cc1Cl (configuration not stated) | – | – | inactive
7 | CC1Cn2c(=O)[nH]c3cccc(c32)NC1=O (configuration not stated) | > 200 µM | 44.7 µM | –
8 | CCCCN(CCCC)c1ccc(/C=C2/C=Cc3ccccc32)cc1 | > 11.2 µM | > 11.2 µM | –
9 | O=C(Nc1ccc2oc(=O)c(C(=O)O)cc2c1)Oc1ccccc1 | > 282 µM | > 282 µM | –
10 | [Cl][Ni+2][Cl].[NH-]CCN1CC1 | > 200 µM | 40.7 µM | –
11 | CCCCCCCC(=O)OCC(COC(=O)C(C)(C)C)OC(=O)Cc1ccccc1 (configuration not stated) | > 251 µM | > 251 µM | –
12 | N#CC12C3C4C5C3C1C(C42)n1c(=O)n(-c2ccccc2)c(=O)n15 (configuration not stated) | > 200 µM | > 200 µM | –
13 | COC(=O)CCC(NC(=O)OC(C)(C)C)C(=O)NC(Cc1ccc([N+](=O)[O-])cc1)C(=O)NCC(=O)OCc1ccccc1 (configuration not stated) (Boc-Glu(OMe)-[Phe(4-NO2)]-Gly-OBn; configuration not given here) | > 200 µM | > 200 µM | –
14 | O=[N+]([O-])c1ccc2nc3ccc([N+](=O)[O-])cn3c2c1 | > 200 µM | > 200 µM | –
15 | O=C1c2cccc3c([N+](=O)[O-])ccc(c23)C(=O)N1NCCO | – | – | inactive
16 | COc1ccc2nc(CC(=N)c3ccc(N(C)C)cc3)ccc2c1 | > 200 µM | 23.4 µM | –
17 | O=[N+]([O-])C(/C=C(\Cl)n1nnc2ccccc21)=C(/Cl)n1nnc2ccccc21 | > 200 µM | > 200 µM | –
18 | CN(C)C12C=CC=CC3=C(c4ccccc4)C(c4ccccc4)=C(c4ccccc4)C31c1ccccc1C2 (configuration not stated) | > 200 µM | > 200 µM | –
19 | CCC[CH2][Sn]([CH2]CCC)([O]C(=O)C1CCC(=O)N1)[O]C(=O)C1CCC(=O)N1 (configuration not stated) | > 38.9 µM | 0.0912 µM | –
20 | CC(C)(C)C1CCC2c3c([nH]c4ccccc34)C3C(=O)N(c4ccc5c(c4)C(=O)c4ccccc4C5=O)C(=O)C3C2C1 (configuration not stated) | > 200 µM | > 200 µM | –
21 | C1CCC(N=C2N(C3CCCCC3)C(=NC3CCCCC3)N2C2CCCCC2)CC1 | > 9.12 µM | > 9.12 µM | –
22 | CC(C)(C)c1cc(Cc2ccc([N+](C)(C)C)cc2)c(O)c(C(C)(C)C)c1 | – | – | inactive

Row | Compound | EC50 | IC50 | outcome
23 | CCN(CC)/[N+]([O-])=N/OC | – | – | inactive
24 | O=[N+]([O-])c1ccccc1S(=O)(=O)c1cccc2c1NCCC2 | 3.47 µM | 38 µM | –
25 | CCOC(=O)C1C[C@H]2CO[C@H](c3ccccc3)N2C1=O (some centres not stated) | > 200 µM | > 200 µM | –
26 | O=C1CCCc2ccc([N+](=O)[O-])c(O)c21 | – | – | inactive
27 | COC1=C(N)C(=O)c2nc(-c3nc(C(=O)O)c(C)c(-c4ccc(OC)c(OC)c4O)c3N)ccc2C1=O | > 4.9 µM | 0.00302 µM and 0.00191 µM | –
28 | CCOC1CCC2C(CCC(/C=C/c3ccc(O)c4ncccc34)N2C)C1 (configuration not stated) | > 28.2 µM | 4.9 µM | –
29 | CNc1ncnc2c1cnn2CCCCO | > 200 µM | > 200 µM | –
30 | COC(=O)C1CCC(=S)N1C(=O)c1ccccc1 (configuration not stated) | > 200 µM | > 200 µM | –
31 | CC(=O)OC1CC2(C)C(OC(C)=O)CC1C2(C)C (configuration not stated) | > 200 µM | > 200 µM | –
32 | Clc1ccccc1/C=C1\c2ccccc2-c2nc3ccccc3nc21 | > 200 µM | > 200 µM | –
33 | CC1=C(C2=C(C)C(=O)C(=O)c3cc(C)ccc32)c2ccc(C)cc2C(=O)C1=O | > 200 µM | 0.0631 µM | –
34 | NS(=O)(=O)c1ccccc1C(=O)N/N=C(\c1nc2ccc([N+](=O)[O-])cc2[nH]c1=O)C(O)c1ccc([N+](=O)[O-])cc1 (configuration not stated) | > 120 µM | 107 µM | –
35 | CCOC(=O)c1nc2ccc(C(F)(F)F)cc2nc1Nc1ccc(Cl)c(Cl)c1 | – | – | inactive
36 | NNC(=O)/C(NC(=O)c1ccccc1)=C(\N)c1ccc(Cl)cc1 | > 282 µM | 162 µM | –
37 | Nc1nc(Cl)c(C=O)c(NCC2(CO)CCC2)n1 | > 200 µM | 2.88 µM | –
38 | CCN(CC)CCOc1ccc(/C(C#N)=C/c2ccc(C(F)(F)F)cc2)cc1 | > 20 µM | 1.23 µM | –
39 | Cc1ccc(CC(Cc2ccc(C)cc2C(=O)O)C(=O)O)cc1 (configuration not stated) | > 200 µM | > 200 µM | –
40 | CC(=O)/C(=C/N1C(=O)CC(=O)NC1=S)C(=O)Nc1ccccc1C | > 200 µM | 178 µM | –
41 | CCOC(=O)NC(Nc1ccc(C(=O)O)cc1)(C(F)(F)F)C(F)(F)F | > 200 µM | > 200 µM | –
42 | Cn1cnc2nc[nH]c2c1=N | > 200 µM | > 200 µM | –
43 | N=C1C=CC2C(=Nc3ccccc3[N+]2=O)N1Cc1ccncc1 (configuration not stated) | > 22.4 µM | 21.4 µM | –
44 | COC(=O)c1oc([N+](=O)[O-])c(Cl)c1Cl | > 151 µM | 0.776 µM | –

Row | Compound | EC50 | IC50 | outcome
45 | Cc1cccc(C(C)(C)C)c1NC(=O)CC1C(=O)Nc2ccccc2S1=O (configuration not stated) | – | – | inactive
46 | Clc1ccc(Nc2nnc(CNc3ccc(-c4nnc(Nc5ccc(Cl)cc5)s4)cc3)s2)cc1 | > 200 µM | 13.2 µM | –
47 | O=C(O)C(CS)NCc1c2ccccc2nc2ccccc12 (configuration not stated) | – | – | inactive
48 | Oc1ccc(C2=CSC3=NCCN23)cc1 | – | – | inactive
49 | S=c1[nH]nc(COc2ccc(Cl)cc2)o1 | > 204 µM | > 204 µM | –
50 | NNC(=S)N/N=C/C(Cl)=C(\Cl)C(=O)O | > 28.2 µM | > 28.2 µM | –
51 | O=[N+]([O-])C(=C/c1cccc2ccccc12)/C(=C\c1cccc2ccccc12)[N+](=O)[O-] | > 20 µM | 9.12 µM | –
52 | Oc1[nH]c2ccccc2c1N=NC(=S)Nc1ccccc1Cl | > 200 µM | 1.51 µM | –
53 | CC1CC2C3CCC4=CC(=O)C=CC4(C)C3(F)C(O)CC2(C)C1(O)C(=O)COP(=O)(O)O (configuration not stated) | – | – | inactive
54 | Cc1cc(NC2=CC(=O)C(=O)c3ccccc32)no1 | > 200 µM | 5.89 µM | –
55 | CN1CCN(C(=S)N(C)C(=O)c2ccc(Cl)cc2)CC1 | > 794 µM | 389 µM | –
56 | Nc1ccc(/C=C2\C=Cc3ccccc32)cc1 | > 200 µM | 28.2 µM | –
57 | CCOCC(C)(CO)CC(C)CO (configuration not stated) | > 200 µM | > 200 µM | –
58 | Cc1c(C(=O)CC(=O)C(=O)Nc2ccc(Cl)c(Cl)c2)[n+](=O)c2ccccc2n1[O-] | > 6.31 µM | > 6.31 µM | –
59 | CSc1c(C#N)c(=O)n(N)c2c1c(C)nn2-c1ccccc1 | > 200 µM | 26.9 µM | –
60 | CCOC(=O)c1nc2ccc(C(F)(F)F)cc2nc1NCc1ccc(Cl)c(Cl)c1 | > 100 µM | 17 µM | –
61 | O=Cc1c(O)c(C(=O)Nc2ccc3[nH]c(=O)[nH]c3c2)cc2ccccc12 | > 38.9 µM | > 38.9 µM | –
62 | CCOC(=O)C(=O)/C(=C/n1c(=S)[nH]c2cc(C)ccc21)C(=O)OCC | > 200 µM | > 200 µM | –
63 | C[C@H]1C2=CC(=O)CC[C@@](C)(O2)[C@H]2CC[C@]3(C)[C@@H](O)CC[C@H]3[C@H]12 | > 589 µM | 234 µM | –
64 | CNCc1c2c(O)c3c(O)c(C)c4c(c3c1O)C(=O)C(C)(O/C=C/C(OC)C(C)C(OC(C)=O)C(C)C(O)C(C)C(O)C(C)/C=C/C=C(/C)C(=O)N2)O4 (configuration not stated) | > 200 µM | 16.6 µM | –
65 | O=C(Nc1ccccc1)N1CCC2N(C(=O)Nc3ccccc3)CCC3N(C(=O)Nc4ccccc4)CCC1N23 (configuration not stated) | > 13.2 µM | > 13.2 µM | –
66 | CCOC(=O)C1(C(=O)OCC)C=C(c2ccccc2)N(C2OC(COC(C)=O)C(OC(C)=O)C(OC(C)=O)C2OC(C)=O)C1=S (configuration not stated) | > 200 µM | 24.5 µM | –

Row | Compound | EC50 | IC50 | outcome
67 | Cc1ccc(CN=C(N)CSS(=O)(=O)O)cc1C | > 200 µM | > 100 µM | –
68 | Cc1cc(=O)[nH]c(NN2C(Cl)C(=O)C2c2c(O)ccc3ccccc23)n1 (configuration not stated) | > 182 µM | 24 µM | –
69 | COc1ccc(/C(C)=N\N)cc1 | > 200 µM | > 200 µM | –
70 | O=S(c1ccc(Cl)cc1)c1ccccc1C1=NCCN1 (configuration not stated) | > 200 µM | > 200 µM | –
71 | OCC1(CO)CSSC1 | 132 µM | 1510 µM | –
72 | NC(N)=NS(=O)(=O)c1ccc(-n2sc3ccccc3c2=O)cc1 | 4.37 µM | 19.1 µM | –
73 | COC(=O)c1cc(C)ccc1/C=C1\Cc2cccc(C)c2C1=O | > 200 µM | – | –
74 | COC(=O)C(Cn1cnc2c(Cl)nc(N)nc21)P(=O)(OC)OC (configuration not stated) | > 692 µM | 37.2 µM | –
75 | CN(C)P(=O)(c1ccccc1)c1ccccc1 | > 200 µM | > 200 µM | –
76 | CCCCCCCc1ccc(OC2OC(COC(C)=O)C(OC(C)=O)C(OC(C)=O)C2OC(C)=O)cc1 (configuration not stated) | > 91.2 µM | 49 µM and > 85.1 µM | –
77 | Cc1cc(C)c2c(c1)C(=O)/C(=C/c1ccccc1C(=O)O)C2 | – | – | inactive
78 | Nc1nc2ncn(CC(O)COC(=O)c3ccccc3)c2c(=O)[nH]1 (configuration not stated) | > 21.9 µM | > 21.9 µM | –
79 | CCCCOC(=O)N[C@H]1CCc2cc(OC)c(OC)c(OC)c2-c2ccc(SC)c(=O)cc21 | > 0.2 µM | 0.00407 µM | –
80 | O=C1C=C(N2CCCCC2)c2cc(N3CCCCC3)ncc2C1=O | – | – | inactive
81 | O=C1C=C(Br)C(=O)C(Br)=C1 | > 257 µM | 23.4 µM | –
82 | CCOC(=O)C(=O)N1C(C)=C(C(=O)OCC)CC(C(=O)OCC)=C1C | > 200 µM | > 200 µM | –
83 | CCOC(=O)C1(NC(=O)OC(C)(C)C)CCc2[nH]oc(=O)c2C1 (configuration not stated) | > 200 µM | > 200 µM | –
84 | CN(C)CCNC(=O)Cn1ccc(=O)c2cc([N+](=O)[O-])ccc21 | > 200 µM | > 200 µM | –
85 | CC(=O)COP(=O)(OCC(C)=O)OCC1OC(n2cc(C)c(=O)[nH]c2=O)CC1N=[N+]=[N-] (configuration not stated) | 0.000631 µM | 2 µM | –
